Results as given in patent US20210015942A1, “ANTIBODY PROTAC CONJUGATES” (Development Center for Biotechnology, priority 2018, published 2021).

Tests used:
BRD2, BRD3, and BRD4 = details: read-out: EC50, inhibitor of BRD2, BRD3, and BRD4; cited from earlier work
BRD4 = BRD4 (Homo sapiens, UniProt O60885); details: BT-474 cells (HER2-positive), 24 hours treatment, various concentrations up to 1 μM, western blot

BRD4 protein degradation (BRD4) | SMILES | EC50 (BRD2, BRD3, and BRD4)
– | Cc1sc2c(c1C)C(c1ccc(Cl)cc1)=N[C@@H](CC(=O)Nc1ccc(O)cc1)c1nnc(C)n1-2 [OTX015] | 10 to 19 nM
cannot degrade BRD4 protein | Cc1sc2c(c1C)C(c1ccc(Cl)cc1)=N[C@@H](CC(=O)Nc1ccc(OCCOCCN(CCOCCNc3cccc4c3C(=O)N(C3CCC(=O)NC3=O)C4=O)C(=O)OCc3ccc(NC(=O)[C@H](CCCNC(N)=O)NC(=O)[C@@H](NC(=O)CCCCCN4C(=O)C=CC4=O)C(C)C)cc3)cc1)c1nnc(C)n1-2 (stereo partly drawn) [Compound 7] | –
as effective as ARV-825 | Cc1sc2c(c1C)C(c1ccc(Cl)cc1)=N[C@@H](CC(=O)Nc1ccc(OCCOCCNCCOCCNc3cccc4c3C(=O)N(C3CCC(=O)NC3=O)C4=O)cc1)c1nnc(C)n1-2 (stereo partly drawn) [Compound 5] | –
